One assay deals with T1, PERK (Homo sapiens, UniProt Q9NZJ5).
T1 sequence (Q9NZJ5 30-1116): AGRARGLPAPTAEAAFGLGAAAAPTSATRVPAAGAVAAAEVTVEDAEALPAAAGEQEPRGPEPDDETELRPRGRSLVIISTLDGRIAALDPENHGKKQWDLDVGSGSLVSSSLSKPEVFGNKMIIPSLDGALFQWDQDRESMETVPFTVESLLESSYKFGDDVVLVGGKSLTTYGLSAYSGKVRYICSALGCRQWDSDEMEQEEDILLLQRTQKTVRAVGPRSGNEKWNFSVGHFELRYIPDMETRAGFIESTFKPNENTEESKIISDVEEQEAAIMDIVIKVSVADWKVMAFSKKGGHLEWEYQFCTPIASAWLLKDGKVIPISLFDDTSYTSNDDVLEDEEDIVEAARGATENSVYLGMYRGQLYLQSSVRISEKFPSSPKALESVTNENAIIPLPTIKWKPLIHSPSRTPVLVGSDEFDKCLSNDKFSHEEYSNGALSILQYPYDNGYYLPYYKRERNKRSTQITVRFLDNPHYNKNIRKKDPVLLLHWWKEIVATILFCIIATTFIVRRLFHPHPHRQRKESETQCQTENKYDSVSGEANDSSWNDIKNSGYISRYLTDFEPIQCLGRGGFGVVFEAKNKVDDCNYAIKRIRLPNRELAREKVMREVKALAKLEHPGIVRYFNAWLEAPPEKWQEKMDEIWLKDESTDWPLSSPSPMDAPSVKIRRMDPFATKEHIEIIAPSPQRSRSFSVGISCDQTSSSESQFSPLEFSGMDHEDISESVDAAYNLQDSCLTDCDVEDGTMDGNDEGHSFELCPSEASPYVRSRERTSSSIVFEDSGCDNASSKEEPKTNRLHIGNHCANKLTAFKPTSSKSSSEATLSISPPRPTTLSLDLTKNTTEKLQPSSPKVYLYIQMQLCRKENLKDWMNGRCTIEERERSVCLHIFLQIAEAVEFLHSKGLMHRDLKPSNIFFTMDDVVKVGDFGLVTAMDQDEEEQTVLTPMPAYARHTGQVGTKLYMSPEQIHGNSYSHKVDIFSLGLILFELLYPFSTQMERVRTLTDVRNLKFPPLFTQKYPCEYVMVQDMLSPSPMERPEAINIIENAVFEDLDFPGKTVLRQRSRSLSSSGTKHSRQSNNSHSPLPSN
The assay can be described thus: Western blot for pEIF2A and pNRF2, annonacin model of tauopathy. In kind it is cell-based. Details: endogenous in cells; host or cells: LUHMES neurons (differentiated, human); in A5 transduced with lentivirus for 3R-/4R-tau or mCherry, not for PERK. The note with it: in the presence of 25 nM annonacin, 48 h. The protocol: Nunc™ Nunclon™ Delta 6-well (for protein and mRNA) or 48-well (for cell assays) plates (Thermo Fisher Scientific, Waltham, Mass., USA) were coated with 100 μg/ml poly-L-lysine (Sigma-Aldrich, St. Louis, Mo., USA) and 5 μg/ml fibronectin (Sigma-Aldrich). LUHMES (Lund Human Mesencephalic) cells, derived from human embryonic ventral mesencephalic cells by conditional immortalization (Tet-off v-myc over-expression) were seeded out in a concentration of 130,000 cells/cm^2 to achieve a confluence of 50%. They were then differentiated for 8 days in a medium of DMEM/F12 (Sigma-Aldrich), 1 μg/ml tetracycline, […] and 490 μg/ml dbcAMP into post-mitotic neurons with a dopaminergic phenotype (Lotharius et al. 2005). […]
Protein was extracted by scraping the cells from the culture plate with Mammalian Protein Extraction Reagent (M-PER, Thermo Fisher Scientific) and 1× cOmplete Protease Inhibitor Cocktail Tablets (Hoffmann-La Roche, Basel, Switzerland) and 1× PhosSTOP Phosphatase Inhibitor Cocktail Tablets (Hoffmann-La Roche). […] Protein concentrations were determined using the BCA kit (Thermo Fisher Scientific) by heating the samples at 60° C. for 30 min and measuring the absorption on the NanoDrop 2000c Spectrophotometer (Thermo Fisher Scientific). […]
A general note: Immunoblotting shows a protein as a band on a membrane.

The subject of a further assay is LUHMES neurons. Briefly: MTT assay, annonacin-treated LUHMES neurons. In kind it is cell-based, human. The note with it: annonacin + PERK activator 200 nM or PERK inhibitor 300 nM, 48 h, vs no PERK modulator. The protocol:
Nunc™ Nunclon™ Delta 6-well (for protein and mRNA) or 48-well (for cell assays) plates (Thermo Fisher Scientific, Waltham, Mass., USA) were coated with 100 μg/ml poly-L-lysine (Sigma-Aldrich, St. Louis, Mo., USA) and 5 μg/ml fibronectin (Sigma-Aldrich). LUHMES (Lund Human Mesencephalic) cells, derived from human embryonic ventral mesencephalic cells by conditional immortalization (Tet-off v-myc over-expression) were seeded out in a concentration of 130,000 cells/cm^2 to achieve a confluence of 50%. They were then differentiated for 8 days in a medium of DMEM/F12 (Sigma-Aldrich), 1 μg/ml tetracycline, […] and 490 μg/ml dbcAMP into post-mitotic neurons with a dopaminergic phenotype (Lotharius et al. 2005).
For all experiments with annonacin, the medium was replaced during the intoxication period with new medium containing glucose levels reduced to 250 μM, i.e. the physiological concentration in the human brain.
Thiazolyl Blue Tetrazolium […] (MTT) (Sigma Aldrich) was dissolved in sterile PBS to a concentration of 5 mg/ml. This stock solution was added to the cells in culture medium to achieve a final concentration of 0.5 mg/ml. The 48-well culture plate was then incubated at 37° C. for 1 h, the medium removed completely and frozen at −80° C. for 1 h. The plate was then thawed, 300 μl DMSO (AppliChem, Darmstadt, Germany) was added per well and the plate was shaken to ensure complete dissolution of the violet crystals. 100 μl from each well were transferred to a new 96-well plate and the absorbance was read with the FLUOstar Omega (BMG Labtech) platereader at a wavelength of 590 nm (reference wave length 630 nm). The data was analyzed using the MARS Data Analysis Software (BMG Labtech) and Prism 6.

Structures are written as SMILES. Entries after “also recorded” stand apart in the source; their conditions may differ.

Turning to `Cn1cc(-c2ccc3c(c2)CCN3C(=O)Cc2cccc(C(F)(F)F)c2)c2c(N)ncnc21` [GSK2606414, reference compound], on PERK (PERK inhibitor 300 nM), the pEIF2A level result is listed as “reduced pEIF2A levels significantly”. The “MTT test, effect of co-treatment” value in the assay on LUHMES neurons is “did not significantly improve; also recorded: never significant”.
In the case of `CCN(CC)CCC(=O)N1N=C(c2c(-c3ccccc3)c3cc(Br)ccc3[nH]c2=O)CC1c1ccc(Br)cc1` (stereo not shown) [CCT020312, 6-bromo-3-[5-(4-bromo-phenyl)-1-(3-diethylamino-propionyl)-4,5-dihydro-1H-pyrazol-3-yl]-4-phenyl-1H-quinolin-2-one], the pNRF2 level entry on PERK (PERK activator 200 nM) is on record as “increased only pNRF2 significantly”. The “MTT test, effect of co-treatment” value in the assay on LUHMES neurons is given as “significant improvement”.

These data come from patent US10369123B2, “Perk activator for the treatment of neurodegenerative diseases” (DEUTSCHES ZENTRUM FÜR NEURODEGENERATIVE ERKRANKUNGEN E.V. …, priority 2014, dated 2019).
